From patent US8546414B2, “Ion channel modulators and methods of use” (Vertex Pharmaceuticals Incorporated, priority 2004, dated 2013)

Assays:
Assay type in all cases: cell-based
CaV2.2 = biological target: T1, CaV2.2 (Homo sapiens, UniProt Q00975); assay: VIPR optical membrane potential assay with electrical stimulation, CaV2.2; conditions: Table 9, CaV 2.2 receptors
T1 construct: expressed in transfected cells; host or cells: HEK293
How it was run: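 HEK293 cells stably expressing CaV2.2 stained with CC2-DMPE/DiSBAC2(3) voltage-sensitive dyes (10 μM final CC2-DMPE, 30 min, RT), then compound added and cells electrically stimulated for 3-5 s. Read-out: background-subtracted 460/580 nm emission ratio; response R=Rf/Ri (post- vs pre-stimulus ratio); antagonism seen as reduced response.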

NaV1.3 = biological target: T2, NaV1.3 (Homo sapiens, UniProt Q9NY46); assay: VIPR optical membrane potential assay with electrical stimulation, NaV1.3; conditions: Table 9, NaV 1.3 receptors
T2 construct: expressed in transfected cells; host or cells: HEK293
How it was run: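 HEK293 cells stably expressing NaV1.3, stained with CC2-DMPE (10 μM final) then DiSBAC2(3) with ABSC1, 30 min each at RT; compounds added with oxonol. Electrical stimulation for 3 s; 460/580 nm background-subtracted emission ratio Rf/Ri, normalised to tetracaine (positive) and untreated (negative) controls.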

NaV1.8 = NaV1.8 (Homo sapiens, UniProt Q9Y5Y9); assay: VIPR optical membrane potential assay, NaV1.8 (other subtypes in an analogous mode); conditions: Table 9, NaV 1.8 receptors
Method: Antagonist properties of test compounds were assessed as follows. Cells expressing the NaV of interest were placed into microtiter plates. After an incubation period, the cells were stained with fluorescent dyes sensitive to the transmembrane potential. The test compounds were added to the microtiter plate. The cells were stimulated with either chemical or electrical means to evoke a NaV dependent membrane potential change from unblocked channels, which was detected and measured with trans-membrane potential-sensitive dyes. Antagonists were detected as a decreased membrane potential response to the stimulus.
24 hours before the assay on VIPR, CHO cells endogenously expressing a NaV 1.2 type voltage-gated NaV are seeded in 96-well poly-lysine coated plates at 60,000 cells per well. […] Plates are incubated in the dark for 30 minutes at room temperature. • 4) While the cells are being stained with coumarin, a […] oxonol solution in BS#2 is prepared. […] As before, the residual volume should be 40 μL. • 6) Upon removing the bath, the cells are loaded with 80 μL of the DiSBAC2(3) solution, after which test compound, dissolved in DMSO, is added to achieve the desired test concentration to each well from the drug addition plate and mixed thoroughly. The volume in the well should be roughly 121 μL. The cells are then incubated for 20-30 minutes. • 7) Once the incubation is complete, the cells are ready to be assayed on VIPR® with a sodium addback protocol. 120 μL of Bath solution #1 is added to stimulate the NaV dependent depolarization. […] tetracaine was used as an antagonist positive control for block of the NaV channel. Analysis of VIPR® Data:
The following is an example of how NaV1.3 inhibition activity is measured using the optical membrane potential method#2. Other subtypes are performed in an analogous mode in a cell line expressing the NaV of interest.

Chain of NaV1.8 (Q9Y5Y9 whole entry): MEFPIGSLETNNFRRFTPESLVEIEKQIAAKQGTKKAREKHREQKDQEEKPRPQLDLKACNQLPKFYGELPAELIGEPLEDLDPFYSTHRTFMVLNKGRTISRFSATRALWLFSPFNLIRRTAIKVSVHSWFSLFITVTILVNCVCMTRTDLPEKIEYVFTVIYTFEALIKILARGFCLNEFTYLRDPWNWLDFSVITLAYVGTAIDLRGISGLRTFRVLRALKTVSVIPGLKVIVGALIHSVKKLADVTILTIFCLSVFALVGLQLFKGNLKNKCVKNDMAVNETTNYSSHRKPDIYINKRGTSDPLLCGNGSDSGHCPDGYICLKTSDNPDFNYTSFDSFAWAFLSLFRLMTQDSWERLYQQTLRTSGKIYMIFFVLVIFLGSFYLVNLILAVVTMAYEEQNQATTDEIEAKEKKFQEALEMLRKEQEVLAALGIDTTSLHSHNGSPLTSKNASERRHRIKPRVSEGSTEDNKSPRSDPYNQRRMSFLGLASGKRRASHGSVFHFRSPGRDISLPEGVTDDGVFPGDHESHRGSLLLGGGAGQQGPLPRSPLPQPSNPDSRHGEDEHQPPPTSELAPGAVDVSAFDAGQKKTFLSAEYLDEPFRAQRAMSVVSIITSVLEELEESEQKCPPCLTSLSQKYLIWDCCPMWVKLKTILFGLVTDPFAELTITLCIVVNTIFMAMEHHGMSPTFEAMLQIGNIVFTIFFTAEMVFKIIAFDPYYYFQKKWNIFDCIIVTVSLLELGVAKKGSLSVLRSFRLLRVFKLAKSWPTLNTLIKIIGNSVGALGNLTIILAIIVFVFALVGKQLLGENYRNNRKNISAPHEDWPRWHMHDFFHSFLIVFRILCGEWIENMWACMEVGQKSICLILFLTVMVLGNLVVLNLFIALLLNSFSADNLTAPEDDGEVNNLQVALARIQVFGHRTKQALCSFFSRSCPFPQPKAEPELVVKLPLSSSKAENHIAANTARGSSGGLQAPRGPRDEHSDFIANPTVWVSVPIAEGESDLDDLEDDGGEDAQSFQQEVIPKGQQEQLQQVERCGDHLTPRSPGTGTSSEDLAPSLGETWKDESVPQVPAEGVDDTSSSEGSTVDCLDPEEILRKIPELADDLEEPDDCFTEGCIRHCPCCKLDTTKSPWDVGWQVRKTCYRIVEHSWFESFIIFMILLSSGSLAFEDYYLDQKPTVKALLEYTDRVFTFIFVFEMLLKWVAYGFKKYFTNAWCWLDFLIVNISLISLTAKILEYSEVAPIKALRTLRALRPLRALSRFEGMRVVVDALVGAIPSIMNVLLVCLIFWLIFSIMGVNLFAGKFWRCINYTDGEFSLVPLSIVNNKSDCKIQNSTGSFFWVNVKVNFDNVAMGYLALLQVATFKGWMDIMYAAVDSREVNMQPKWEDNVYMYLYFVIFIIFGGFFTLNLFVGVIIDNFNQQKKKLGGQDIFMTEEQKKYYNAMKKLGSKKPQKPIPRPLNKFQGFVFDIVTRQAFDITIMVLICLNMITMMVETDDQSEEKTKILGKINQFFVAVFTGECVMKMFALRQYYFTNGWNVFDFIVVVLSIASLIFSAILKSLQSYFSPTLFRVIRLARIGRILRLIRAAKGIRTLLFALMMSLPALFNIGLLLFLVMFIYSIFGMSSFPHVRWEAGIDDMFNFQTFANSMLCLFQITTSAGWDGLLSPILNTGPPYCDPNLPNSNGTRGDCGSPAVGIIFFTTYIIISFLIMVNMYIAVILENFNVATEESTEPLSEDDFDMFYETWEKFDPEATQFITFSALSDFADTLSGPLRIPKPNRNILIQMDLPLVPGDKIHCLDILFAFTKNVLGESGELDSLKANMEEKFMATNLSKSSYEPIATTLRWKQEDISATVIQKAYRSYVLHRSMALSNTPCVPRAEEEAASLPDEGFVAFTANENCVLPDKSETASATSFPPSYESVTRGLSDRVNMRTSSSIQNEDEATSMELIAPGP
T2 sequence (Q9NY46 whole entry): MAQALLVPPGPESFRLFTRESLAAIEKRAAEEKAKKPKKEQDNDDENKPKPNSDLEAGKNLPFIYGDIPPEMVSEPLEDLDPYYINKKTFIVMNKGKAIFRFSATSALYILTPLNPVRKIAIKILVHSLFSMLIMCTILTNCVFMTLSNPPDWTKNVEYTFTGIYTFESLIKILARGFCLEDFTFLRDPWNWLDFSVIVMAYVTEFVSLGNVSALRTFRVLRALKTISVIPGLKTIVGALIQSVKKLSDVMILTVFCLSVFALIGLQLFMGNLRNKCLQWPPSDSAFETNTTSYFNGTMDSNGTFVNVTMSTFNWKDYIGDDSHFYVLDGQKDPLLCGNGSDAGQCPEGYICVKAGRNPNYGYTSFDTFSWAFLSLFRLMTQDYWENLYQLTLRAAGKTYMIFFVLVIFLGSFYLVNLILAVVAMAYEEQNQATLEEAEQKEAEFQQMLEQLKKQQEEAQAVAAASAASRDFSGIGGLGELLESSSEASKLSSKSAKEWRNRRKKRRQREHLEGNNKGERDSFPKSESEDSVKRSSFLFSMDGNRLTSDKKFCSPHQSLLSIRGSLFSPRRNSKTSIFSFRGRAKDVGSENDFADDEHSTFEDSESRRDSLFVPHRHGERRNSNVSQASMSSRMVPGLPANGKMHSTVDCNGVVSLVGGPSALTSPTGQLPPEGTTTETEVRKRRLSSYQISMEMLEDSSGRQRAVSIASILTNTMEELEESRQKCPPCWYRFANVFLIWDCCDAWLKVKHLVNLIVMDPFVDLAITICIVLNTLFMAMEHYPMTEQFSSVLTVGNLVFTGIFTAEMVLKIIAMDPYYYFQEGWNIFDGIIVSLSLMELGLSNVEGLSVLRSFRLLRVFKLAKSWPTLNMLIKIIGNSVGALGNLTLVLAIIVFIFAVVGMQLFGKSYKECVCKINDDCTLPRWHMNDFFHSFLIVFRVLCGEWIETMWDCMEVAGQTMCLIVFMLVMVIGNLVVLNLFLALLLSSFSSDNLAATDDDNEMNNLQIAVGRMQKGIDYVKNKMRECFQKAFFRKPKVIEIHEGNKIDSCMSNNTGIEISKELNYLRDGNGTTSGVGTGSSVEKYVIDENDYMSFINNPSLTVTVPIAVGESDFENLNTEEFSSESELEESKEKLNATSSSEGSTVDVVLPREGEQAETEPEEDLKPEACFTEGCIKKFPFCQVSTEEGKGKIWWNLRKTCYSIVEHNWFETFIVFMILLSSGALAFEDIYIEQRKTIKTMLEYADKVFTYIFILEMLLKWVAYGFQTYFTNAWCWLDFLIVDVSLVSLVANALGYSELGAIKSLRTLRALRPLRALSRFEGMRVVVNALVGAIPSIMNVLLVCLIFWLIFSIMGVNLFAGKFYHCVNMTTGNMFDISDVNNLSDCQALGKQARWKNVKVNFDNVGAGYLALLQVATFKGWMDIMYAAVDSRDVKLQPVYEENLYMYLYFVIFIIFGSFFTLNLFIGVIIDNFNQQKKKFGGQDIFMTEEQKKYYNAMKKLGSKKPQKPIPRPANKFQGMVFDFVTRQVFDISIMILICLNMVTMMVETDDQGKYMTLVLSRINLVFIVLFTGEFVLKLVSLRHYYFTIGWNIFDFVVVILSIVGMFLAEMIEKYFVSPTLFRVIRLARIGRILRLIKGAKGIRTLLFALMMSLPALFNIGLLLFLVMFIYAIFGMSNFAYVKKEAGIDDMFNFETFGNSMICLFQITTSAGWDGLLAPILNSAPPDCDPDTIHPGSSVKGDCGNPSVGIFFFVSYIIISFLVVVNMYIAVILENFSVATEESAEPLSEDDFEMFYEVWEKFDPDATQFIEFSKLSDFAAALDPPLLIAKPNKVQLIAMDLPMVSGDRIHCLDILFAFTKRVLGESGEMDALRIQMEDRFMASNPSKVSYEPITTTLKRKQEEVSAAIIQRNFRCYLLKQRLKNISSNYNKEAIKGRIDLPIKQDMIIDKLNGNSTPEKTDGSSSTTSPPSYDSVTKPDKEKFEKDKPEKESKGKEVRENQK

SMILES	IC50 (CaV2.2) [µM]	IC50 (NaV1.3) [µM]	IC50 (NaV1.8) [µM]
O=C(c1cnc(N2CCCCC2)nc1-c1ccccc1F)N(Cc1ccccc1)C1CCCC1 [compound 136]	2 to 10	2 to 10	> 10
O=C(c1cnc(N2CCSCC2)nc1-c1ccccc1F)N(Cc1ccc2c(c1)CCO2)C1CC1 [compound 30]	2 to 10	2 to 10	> 10
COc1ccccc1C1CCN(C(=O)c2cnc(N3CCOCC3)nc2-c2ccccc2F)CC1 [compound 44]	> 10	2 to 10	2 to 10
CC(C)N(Cc1ccccc1)C(=O)c1cnc(Nc2cccc(Cl)c2)nc1-c1ccccc1F [compound 177]	> 10	> 10	> 10
O=C(c1cnc(N2CCOCC2)nc1-c1ccccc1F)N(Cc1ccccc1)C1CC1 [compound 100]	2 to 10	2 to 10	> 10
CC(C)N(C(=O)c1cnc(N2CCCCC2)nc1-c1ccccc1F)c1ccc2c(c1)OCO2 [compound 70]	< 2	2 to 10	> 10
CC(C)N(C(=O)c1cnc(N2CCOCC2)nc1-c1ccccc1F)C1CCSC1 (stereo not drawn) [compound 172]	> 10	> 10	> 10
Cc1nc(N2CCCCC2)nc(-c2ccccc2F)c1C(=O)N(Cc1ccc(C(C)(C)C)cc1)C(C)C [compound 32]	2 to 10	2 to 10	> 10
COc1ccc(CN(C(=O)c2cnc(N3CCN(C)CC3)nc2-c2ccccc2F)C2CC2)cc1 [compound 193]	> 10	> 10	> 10
O=C(c1cnc(N2CCSCC2)nc1-c1ccccc1F)N(Cc1ccccc1)C1CCCC1 [compound 157]	2 to 10	2 to 10	> 10
CC(C)N(Cc1ccccc1)C(=O)c1cnc(N2CCOCC2)nc1-c1ccc(Oc2ccccc2)cc1 [compound 123]	2 to 10	> 10	> 10
CCNc1ncc(C(=O)N(Cc2ccccc2)C(C)C)c(-c2ccccc2F)n1 [compound 11]	> 10	> 10	> 10
CC(C)N(C(=O)c1cnc(N2CCCCC2)nc1-c1ccccc1F)c1cccc2ccccc12 [compound 112]	> 10	2 to 10	> 10
COc1cccc(N(C(=O)c2c(C)nc(N3CCCCC3)nc2-c2ccccc2F)C(C)C)c1 [compound 104]	> 10	2 to 10	> 10
CC(C)N(Cc1ccccc1)C(=O)c1cnc(N2CCCCC2)nc1-c1ccccc1Cl [compound 1]	< 2	2 to 10	2 to 10
CC1CN(c2ncc(C(=O)N(Cc3ccccc3)C(C)C)c(-c3ccccc3F)n2)CC(C)O1 (stereo not drawn) [compound 69]	2 to 10	> 10	> 10
COc1cccc(CN(C(=O)c2cnc(N3CCC4CCCCC4C3)nc2-c2ccccc2F)C(C)C)c1 (stereo not drawn) [compound 162]	< 2	< 2	> 10
O=C(c1cnc(N2CCSCC2)nc1-c1ccccc1F)N(Cc1ccccc1)C1CCCCC1 [compound 47]	2 to 10	2 to 10	> 10
COc1cccc(N(C(=O)c2cnc(N3CCCCC3)nc2-c2ccccc2F)C2CC2)c1 [compound 158]	> 10	> 10	> 10
CC(C)N(C(=O)c1cnc(N2CCC3CCCCC3C2)nc1-c1ccccc1F)c1ccccc1 (stereo not drawn) [compound 105]	2 to 10	2 to 10	> 10
CC(C)N(C(=O)c1cnc(N2CCCCC2)nc1-c1ccccc1Cl)C1CCSC1 (stereo not drawn) [compound 155]	2 to 10	> 10	> 10
COc1cc2c(cc1OC)CN(C(=O)c1cnc(N3CCOCC3)nc1-c1ccccc1F)CC2 [compound 144]	> 10	> 10	> 10
CC(C)N(Cc1ccc(N2CCCC2)cc1)C(=O)c1cnc(N2CCCCC2)nc1-c1ccccc1Cl [compound 198]	2 to 10	> 10	> 10
